Consider 3 molecules from publication PMC10747602, “Dose Response, Dosimetric, and Metabolic Evaluations of Replacement PFAS Perfluoro-(2,5,8-trimethyl-3,6,9-trioxadodecanoic) Acid (HFPO-TeA)” (Toxics, 2023).

One data set relates to rat hepatocytes. Briefly: Hepatocyte metabolic stability (clearance) assay, rat hepatocytes. Conditions: 1000 nM. The procedure:
(§1) Information on the chemicals and materials used in the hepatocyte metabolic work can be found in Supplementary Text S9 and Table S3. In vitro evaluations of hepatocyte metabolic stability were performed in human and rat hepatocytes, as previously described. Briefly, pooled, cryopreserved hepatocyte suspensions were thawed, assessed for viability, and then diluted in William’s medium E containing dexamethasone and cell maintenance cocktail B to achieve a cell density of 50,000 cells/100 µL. The assay was started by adding hepatocyte suspensions to wells of 96-well polypropylene plates containing an equal volume of media with 2 µM of analyte (final assay concentration: 1 µM). Plates were placed in a 37 °C cell culture incubator (5% CO2) on a shaker set to 200 rpm. Time points assessed were T0, T15, T30, T60, T120, and T240 min. At each time point, the plates were removed from the shaker and the incubates were crashed with an equal volume of ice-cold ACN containing 1.2% FA and 16 ng/mL of ^13C3 -HFPO-DA. After chilling and centrifugation at 4122× g, the supernatants were transferred to new collection plates and stored at −70 °C until analysis for the parent compound on the Waters instrumentation described below. Immediately prior to analysis, samples were thawed, vortexed, and centrifuged at 4200× g, and then diluted 1:4 in 95:5 H2O/ACN with 2.5 mM of ammonium acetate. Negative controls, including no cell controls and metabolically inactivated hepatocytes, were run concurrently to assess the chemical stability over the time course.
(§2) Intrinsic clearance (Clint; hepatic clearance) calculations are detailed in Supplementary Text S9 [57].
(§3) Targeted, quantitative analysis of in vitro hepatocyte metabolic stability and plasma protein binding assay samples was conducted on a Waters Xevo-TQS micro mass spectrometer (Waters, Milford, MA, USA) ultra-high-performance liquid chromatography tandem mass spectrometry system (UPLC-MS/MS), modified with a PFAS analysis kit. Samples were analyzed in negative ion mode with UniSpray ionization. A CORTECS T3 column (Waters CORTECS, 3 × 100 mm, particle size 2.7 µm) was used for chromatographic separation with a flow rate of 0.6 mL/min and a temperature of 55 °C. Gradient elution was used with eluent A (95:5 H2O/ACN) and eluent B (95:5 ACN/H2O) with 2.5 mM of ammonium acetate. The gradient is available in Table S11. Additional details for MS parameters are found in Table S12 and monitored transitions are found in Table S13.
(§4) Table S2: Data processing parameters used with Sciex MarkerView 1.3.1.
(§5) Support ing Text S9: Hepatocyte Metabolic Stability Assay Materials, Chemicals, and Calculations
(§6) Pooled human and rat cryopreserved primary hepatocyte suspensions were both obtained from
(§7) BioIVT, a US Food and Drug Administration-licensed and inspected donor center, and produced using
(§8) non-transplantable tissue.
(§9) William’s E media, dexamet hasone (98% pure), and cell maintenance cocktail B were obtained from
(§10) Thermo Fisher Scientific (Waltham, MA, USA), the OptiThaw hepatocyte kit from Sekisui/Xenotech
(§11) (Tokyo, Japan), and the trypan blue s (Sekisui/ Xenotech, Tokyo, Japan) and the trypan blue solution from […]

Assay in data set [1]: as above
The conditions noted are these: both, Sprague Dawley, rat, hepatocytes. The procedure:
as §1, §2, §3, §4, §5, §6, §7, §8, §9, §10, §11

Data set [2] in a line: Hepatocyte metabolic stability (clearance) assay, human hepatocytes. The conditions noted are these: human, hepatocytes, 1000 nM. The procedure: as §1, §2, §3, §4, §5, §6, §7, §8, §9, §10, §11
The test system of a further data set is human hepatocytes. Described as above. The conditions noted are these: 1000 nM; for Negative Control Data, No cells (NC), Ln Concentration / Negative Control Data, Heat Treated (HT), Ln Concentration / Ln Concentration: Rep 1-3. The procedure:
as §1, §2, §3, §4, §5, §6, §7, §8, §9, §10, §11

On the set-up of data set [3]: method as in PMID 21948869, PMID 36309054. Conditions: cited from earlier work.
The conditions of data set [4]: male mice, 2.5 mg/kg/day orally for 28 days; cited from earlier work.
Details of data set [5]: method as in PMID 18661093. Conditions: male rats, 5 mg/kg/day orally for 28 days; cited from earlier work.

Several values for one entry are separate records, joined by “and”; a condition that tells them apart may be missing. Identical values can stand only once. Like-named read-outs stand apart in the source and are kept apart here.

Consider `CCOc1ccc(NC(C)=O)cc1` [Phenactin, phenacetin, reference compound], for which the “Negative Control Data, Heat Treated (HT), 15 min” value in the data set on rat hepatocytes (heat treated rat hepatocytes, 15 min, Ln concentration, Rep 1-3) is 3.7605 and 3.8293 and 3.8230. Moreover, in the data set with rat hepatocytes (heat treated rat hepatocytes, 240 min, Ln concentration, Rep 1-3), the “Negative Control Data, Heat Treated (HT), 240 min” value is 3.8801 and 3.8626 and 3.3989. Also, the “Negative Control Data, No cells (NC), 15 min” value in the data set with rat hepatocytes (no cells, 15 min, Ln concentration, Rep 1-3) was 3.7121 and 3.7753 and 3.7677. For the same molecule, the “Negative Control Data, No cells (NC), 240 min” value in the data set with rat hepatocytes (no cells, 240 min, Ln concentration, Rep 1-3) was 3.8252 and 3.8743 and 4.0157. In the data set on rat hepatocytes (suspended rat hepatocytes, time 0 min, Rep 1-3), the “Ln Concentration, 0 min” value was 3.7431 and 3.7883 and 3.8093. Moreover, the “Ln Concentration, 15 min” value in the data set on rat hepatocytes (suspended rat hepatocytes, time 15 min, Rep 1-3) is 3.7497 and 3.8776 and 3.8997. Also, the “Ln Concentration, 30 min” value in the data set on rat hepatocytes (suspended rat hepatocytes, time 30 min, Rep 1-3) is 3.5148 and 3.4871 and 3.5444. Moreover, the “Ln Concentration, 60 min” value in the data set on rat hepatocytes (suspended rat hepatocytes, time 60 min, Rep 1-3) was 3.0012 and 3.3979 and 3.4757. Besides, the “Ln Concentration, 120 min” value in the data set with rat hepatocytes (suspended rat hepatocytes, time 120 min, Rep 1-3) is 2.7575 and 2.7517 and 2.9423. In the data set on rat hepatocytes (suspended rat hepatocytes, time 240 min, Rep 1-3), the “Ln Concentration, 240 min” value is 2.0042 and 1.7029 and 2.0503. In the data set on rat hepatocytes (suspended rat hepatocytes, time in min), the “Linear Regression Best-Fit Slope (Ln concentration vs time)” value is recorded as -0.008025. This molecule also returned a half-life at 1000 nM in data set [1] of 1.44 h. In data set [1], this molecule gave an intrinsic clearance (hepatocyte CLint) at 1000 nM of 16.1 µL/min/1e6 cells. Also, the hepatocyte CLint at 1 µM in data set [2] (Background-Subtracted Clint, human hepatocytes) stood at 8.8 µL/min/1e6 cells; in data set [2] (Clint, human hepatocytes, not background-subtracted), 12.1 µL/min/1e6 cells. Also, the half-life at 1 µM in data set [2] (HT-Background Half Life, heat treated human hepatocytes) stood at 7.1 h; in data set [2] (Half Life, human hepatocytes, time in min), 1.92 h. The “Negative Control Data, No cells (NC), Ln Concentration” value is 3.8649 and 3.8943 and 3.8643 in the data set with human hepatocytes (15 min); 3.9162 and 4.0144 and 3.9729 in the data set on human hepatocytes (240 min). In the data set on human hepatocytes (heat treated human hepatocytes), the “HT Background k” value is reported as -0.0016. Besides, the “Negative Control Data, Heat Treated (HT), Ln Concentration” value is 4.4085 and 4.9735 and 5.3748 in the data set on human hepatocytes (human hepatocytes, 15 min); 4.6160 and 4.4891 and 4.5540 in the data set with human hepatocytes (human hepatocytes, 240 min). For the same molecule, the “Ln Concentration” value was 3.7764 and 3.7975 and 3.7223 with human hepatocytes (human hepatocytes, time 0 min); 3.8137 and 3.7544 and 3.6623 in the data set on human hepatocytes (human hepatocytes, time 15 min); 3.5799 and 3.7106 and 3.6378 in the data set on human hepatocytes (human hepatocytes, time 30 min); 3.3014 and 3.5121 and 3.4541 with human hepatocytes (human hepatocytes, time 60 min). Moreover, the “Linear Regression Best-Fit Slope (ln concentration vs time)” value in the data set with human hepatocytes (human hepatocytes, time in min) is recorded as -0.006025.
As to `O=S(=O)(O)C(F)(F)C(F)(F)C(F)(F)C(F)(F)C(F)(F)C(F)(F)C(F)(F)C(F)(F)F` [PFOS, perfluorooctane sulfonic acid], the “underestimation of Css values by previous IVIVE evaluations” value in data set [3] is listed as above 100 ×.
Take `O=C(O)C(F)(F)C(F)(F)C(F)(F)C(F)(F)C(F)(F)C(F)(F)C(F)(F)F` [PFOA, perfluorooctanoic acid]: the Kp in data set [4] is given as 1.54; in data set [5], 5.88. In addition, in data set [3], the “underestimation of Css values by previous IVIVE evaluations” value is recorded as above 100 ×.
